Measurements published in ChEMBL document CHEMBL1126414, “Dopamine receptor binding properties of some 2,3,4,5-tetrahydro-1H-3-benzazepine-7-ols with non-aromatic substituents in the 5-position” (Bioorg Med Chem Lett, 1992).

How the values were obtained:
[1] = biological target: D(1A) dopamine receptor (Rattus norvegicus, UniProt P18901); assay: Binding affinity towards Dopamine receptor D1 in rat striatal tissue by [3H]-SCH- 23390 displacement.; format: tissue-based, Striatum
[2] = biological target: D(2) dopamine receptor (Rattus norvegicus, UniProt P61169); assay: Binding affinity towards Dopamine receptor D2 in rat striatal tissue by [3H]spiperone displacement.; format: tissue-based, Striatum
Sequence of D(2) dopamine receptor (P61169 whole entry): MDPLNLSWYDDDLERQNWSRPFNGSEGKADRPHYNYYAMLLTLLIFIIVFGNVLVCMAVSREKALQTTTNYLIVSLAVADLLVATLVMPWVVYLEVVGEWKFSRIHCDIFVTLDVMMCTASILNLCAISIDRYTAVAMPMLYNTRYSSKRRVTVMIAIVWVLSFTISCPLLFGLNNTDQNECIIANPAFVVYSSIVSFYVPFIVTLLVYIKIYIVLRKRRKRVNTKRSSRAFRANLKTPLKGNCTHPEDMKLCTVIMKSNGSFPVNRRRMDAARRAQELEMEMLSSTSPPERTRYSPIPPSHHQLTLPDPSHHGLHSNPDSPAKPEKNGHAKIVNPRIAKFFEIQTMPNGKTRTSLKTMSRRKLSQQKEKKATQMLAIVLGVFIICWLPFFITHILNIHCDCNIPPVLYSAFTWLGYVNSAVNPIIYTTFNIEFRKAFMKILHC

[3] = test system: Rattus norvegicus; assay: Minimal dose producing reduction in avoidance responding after sc administration for 1 hr in rat; format: functional

Sequence of D(1A) dopamine receptor (P18901 whole entry): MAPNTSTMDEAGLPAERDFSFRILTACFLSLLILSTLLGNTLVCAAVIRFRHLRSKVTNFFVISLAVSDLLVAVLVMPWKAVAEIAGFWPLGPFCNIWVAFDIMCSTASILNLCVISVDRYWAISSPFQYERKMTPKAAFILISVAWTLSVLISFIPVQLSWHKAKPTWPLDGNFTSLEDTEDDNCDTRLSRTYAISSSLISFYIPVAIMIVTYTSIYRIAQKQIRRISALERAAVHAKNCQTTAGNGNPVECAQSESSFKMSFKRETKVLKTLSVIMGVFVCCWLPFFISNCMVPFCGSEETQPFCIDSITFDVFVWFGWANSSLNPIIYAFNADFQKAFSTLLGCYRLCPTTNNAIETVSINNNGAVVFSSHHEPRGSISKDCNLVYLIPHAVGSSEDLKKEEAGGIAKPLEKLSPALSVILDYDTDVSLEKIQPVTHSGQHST

| Structure (SMILES) | Ki [1] [nM] | Ki [2] [nM] | CAR [3] [MPK] |
| --- | --- | --- | --- |
| C#CCC1CN(C)CCc2cc(Cl)c(O)cc21 (centres undefined) | 8.7 | 626 | 1 |
| CN1CCc2cc(Cl)c(O)cc2C(C2C=CC=CC=C2)C1 (centres undefined) | 3.7 | 1800 | 0.1 |
| CCOC1CN(C)CCc2cc(Cl)c(O)cc21 (centres undefined) | 24 | > 10000 | 1 |
| CN1CCc2cc(Cl)c(O)cc2C(C2C=CCCC2)C1 (centres undefined) | 2 | 581 | 0.3 |
| CCCC1CN(C)CCc2cc(Cl)c(O)cc21 (centres undefined) | 3.3 | 1160 | 0.3 |
| CN1CCc2cc(Cl)c(O)cc2C(C2=CCCCC2)C1 (centres undefined) | 2.1 | 1600 | 0.1 |
| CN1CCc2cc(Cl)c(O)cc2C(N2CCCCC2)C1 (centres undefined) | 100 | > 10000 | 3 |
| C=CCC1CN(C)CCc2cc(Cl)c(O)cc21 (centres undefined) | 5.7 | 284 | 0.1 |
| CN1CCc2cc(Cl)c(O)cc2C(C2CCCCCC2)C1 (centres undefined) | 7.6 | 1190 | 1 |
| CN1CCc2cc(Cl)c(O)cc2C2(CCCC2)C1 | 23 | 2250 | 1 |
| CCSC1CN(C)CCc2cc(Cl)c(O)cc21 (centres undefined) |  | 2710 |  |
| CN1CCc2cc(Cl)c(O)cc2C(C2CCCC2)C1 (centres undefined) | 13 | 2050 | 1 |
| CN1CCc2cc(O)c(Cl)cc2CC1 | 46 | 265 | 1 |
| CN(C)CCCC1CN(C)CCc2cc(Cl)c(O)cc21 (centres undefined) | > 1000 | > 100000 |  |
| CN1CCc2cc(Cl)c(O)cc2C(C2=CCCC2)C1 (centres undefined) | 5.1 | 1540 |  |
| CN1CCc2cc(Cl)c(O)cc2C(C2CCCCC2)C1 (centres undefined) |  | 1780 | 0.3 |
| CN1CCc2cc(Cl)c(O)cc2[C@@H](c2ccccc2)C1 [SCH-23390] |  |  | 0.02 |
